Experiment: Inhibition of N-terminal GST-tagged wildtype human P38alpha (4 to 152 residues) extracted from Escherichia coli/GST-tagged MK2 (unknown origin) assessed as reduction in HSP27 phosphorylation incubated for 2 hrs in presence of ATP and HSP27-FITC peptide by fluorescence polarization based IMAP assay

Row | IC50 [nM] | Structure (SMILES)
1 | > 10000 | Cc1cnc(-c2ccnc(C(C)(C)O)n2)nc1-n1c(C)cc(OCc2ncc(F)cc2F)c(Cl)c1=O
2 | 88 | Cc1cnc(-c2ccnc(C(C)(C)O)n2)cc1-n1c(C)cc(OCc2ncc(F)cc2F)c(C)c1=O
3 | 92 | Cc1cnc(-c2ccnc(C(C)(C)O)n2)c(F)c1-n1c(C)cc(O[C@@H](C)c2ncc(F)cc2F)c(C(C)C)c1=O
4 | 32 | Cc1cnc(-c2ccnc(C(C)(C)O)n2)c(F)c1-n1c(C)cc(O[C@@H](C)c2ncc(F)cc2F)c(C2CC2)c1=O
5 | 143 | Cc1cnc(-c2ccnc(C(C)(C)O)n2)c(F)c1-n1c(C)cc(O[C@@H](C)c2ncc(F)cc2F)c(C=O)c1=O
6 | 34 | C=Cc1c(O[C@@H](C)c2ncc(F)cc2F)cc(C)n(-c2c(C)cnc(-c3ccnc(C(C)(C)O)n3)c2F)c1=O
7 | 112 | Cc1cnc(-c2ccnc(C(C)(C)O)n2)c(F)c1-n1c(C)cc(O[C@@H](C)c2ncc(F)cc2F)c(C(F)F)c1=O
8 | > 10000 | Cc1cnc(-c2ccnc(C(C)(C)O)n2)cc1-n1c(C)cc(Oc2ncc(F)cc2F)c(Cl)c1=O
9 | 26 | COc1c(O[C@@H](C)c2ncc(F)cc2F)cc(C)n(-c2c(C)cnc(-c3ccnc(C(C)(C)O)n3)c2F)c1=O
10 | 61 | Cc1cnc(-c2cc(C(C)(C)O)ccc2F)c(F)c1-n1c(C)cc(O[C@@H](C)c2ncc(F)cc2F)c(Cl)c1=O
11 | 15.5 | Cc1cnc(-c2cccc(C(C)(C)O)c2F)cc1-n1c(C)cc(O[C@@H](C)c2ncc(F)cc2F)c(C)c1=O
12 | > 1000 | Cc1cnc(-c2ccnc(C(C)(C)O)n2)cc1-n1c(C)cc(O[C@@H](C)c2ncc(F)cc2F)c(Cl)c1=O
13 | > 1000 | C=C(C)c1c(O[C@@H](C)c2ncc(F)cc2F)cc(C)n(-c2c(C)cnc(-c3ccnc(C(C)(C)O)n3)c2F)c1=O
14 | 4 | CCc1c(O[C@@H](C)c2ncc(F)cc2F)cc(C)n(-c2c(C)cnc(-c3ccnc(C(C)(C)O)n3)c2F)c1=O

Second part, the molecule before the results:

Row | Structure (SMILES) | IC50 [nM]
15 | Cc1cnc(-c2ccnc(C(C)(C)O)n2)cc1-c1c(F)cc(OCc2ncc(F)cc2F)c(Cl)c1C | > 10000
16 | Cc1cnc(-c2ccnc(C(C)(C)O)n2)cc1-n1ncc(OCc2ncc(F)cc2F)c(Cl)c1=O | 1150
17 | Cc1cnc(-c2ccnc(C(C)(C)O)n2)cc1N1CCC(OCc2ncc(F)cc2F)CC1=O (stereo not given) | > 10000
18 | Cc1cnc(-c2cccc(C(C)(C)O)c2Cl)c(F)c1-n1c(C)cc(OCc2ncc(F)cc2F)c(Cl)c1=O | 6
19 | Cc1cnc(-c2ccnc(C(C)(C)O)n2)cc1-c1c(C)cc(OCc2ncc(F)cc2F)c(Cl)[n+]1[O-] | 83.9
20 | Cc1cnc(-c2ccnc(C(C)(C)O)n2)cc1-c1c(C)cc(OCc2ncc(F)cc2F)c(Cl)c1F | > 10000
21 | Cc1cnc(-c2cccc(C(C)(C)O)c2C)c(F)c1-n1c(C)cc(OCc2ncc(F)cc2F)c(Cl)c1=O | 68
22 | Cc1cnc(-c2ccnc(C(C)(C)O)n2)cc1-n1c(C)cc(OC2CN(c3ncc(F)cc3F)C2)c(Cl)c1=O | 284
23 | Cc1cnc(-c2ccnc(C(C)(C)O)n2)cc1-n1c(C)cc(COc2ncc(F)cc2F)c(Cl)c1=O | 1540
24 | Cc1cnc(-c2ccnc(C(C)(C)O)n2)cc1-n1c(C)cc(SCc2ncc(F)cc2F)c(Cl)c1=O | 22.6
25 | Cc1cnc(-c2ccnc(C(C)(C)O)n2)cc1-c1c(C)c(Cl)c(OCc2ncc(F)cc2F)c[n+]1[O-] | > 10000
26 | Cc1ccc(C(C)(C)O)cc1-c1ncc(C)c(-n2c(C)cc(OCc3ncc(F)cc3F)c(Cl)c2=O)c1F | 62
27 | Cc1cc(OCc2ncc(F)cc2F)c(Cl)c(=O)n1C1=CCCN(c2ccnc(C(C)(C)O)n2)C1 | > 10000
28 | Cc1cnc(-c2cc(C(C)(C)O)ccc2Cl)c(F)c1-n1c(C)cc(OCc2ncc(F)cc2F)c(Cl)c1=O | 19
29 | Cc1nn(-c2ccnc(C(C)(C)O)n2)cc1-n1c(C)cc(OCc2ncc(F)cc2F)c(Cl)c1=O | 1300
30 | Cc1cnc(-c2ccnc(C(C)(C)O)n2)cc1-c1c(C)cc(OCc2ncc(F)cc2F)c[n+]1[O-] | > 10000

— ChEMBL document CHEMBL6096702, “Discovery of a Novel p38α-MK2 Complex Inhibitor as a Potential Choice for Autoimmune Diseases” (J Med Chem, 2025)
